From ChEMBL document CHEMBL1641420, “Discovery of pyrazolo[1,5-a]pyrimidine-based CHK1 inhibitors: a template-based approach--part 1” (Bioorg Med Chem Lett, 2011) come the findings set out here.

Test [1] deals with Cyclin-dependent kinase 2/cyclin A (Homo sapiens, UniProt P24941). Briefly: Inhibition of CDK2/cyclin A. In kind it is protein-complex assay.
Test [2] has as its target T1, Serine/threonine-protein kinase Chk1 (Homo sapiens, UniProt O14757).
T1 sequence (O14757 whole entry): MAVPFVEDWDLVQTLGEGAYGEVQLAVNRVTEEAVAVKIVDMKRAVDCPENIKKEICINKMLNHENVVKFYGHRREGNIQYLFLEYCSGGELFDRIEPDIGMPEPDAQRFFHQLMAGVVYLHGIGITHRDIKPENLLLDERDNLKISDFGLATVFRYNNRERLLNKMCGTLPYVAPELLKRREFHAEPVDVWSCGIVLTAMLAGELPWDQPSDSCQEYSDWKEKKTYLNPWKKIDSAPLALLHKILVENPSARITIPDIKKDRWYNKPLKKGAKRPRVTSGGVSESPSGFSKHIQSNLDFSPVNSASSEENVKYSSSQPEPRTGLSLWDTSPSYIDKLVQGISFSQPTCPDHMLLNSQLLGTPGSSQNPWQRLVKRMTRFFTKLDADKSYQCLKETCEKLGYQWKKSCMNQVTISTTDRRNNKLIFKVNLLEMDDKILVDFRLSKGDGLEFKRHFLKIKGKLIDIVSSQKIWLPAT
Put plainly: Inhibition of recombinant His-CHK1 expressed in baculovirus after 2 hrs by scintillation proximity assay.

Test [3] can be described thus: Selectivity ratio, ratio of IC50 for CDK2/cyclin A to IC50 for recombinant His-CHK1.

Consider `Cn1cc(-c2cnn3c(NC4CCNCC4)cc(C4CCCNC4)nc23)cn1` (configuration not stated), for which the IC50 is over 50 µM in test [1] and 6.8 µM in test [2].

Take `Nc1cc(C2CCCNC2)nc2c(-c3cccnc3)cnn12` (configuration not stated): the 50% inhibitory concentration (IC50) in test [2] was 0.54 µM.

Take `Cn1cc(-c2cnn3c(Nc4ccccc4)cc(C4CCCNC4)nc23)cn1` (configuration not stated): the half-inhibitory concentration (IC50) was over 50 µM in test [1] and 0.087 µM in test [2]. For `[O-][n+]1cccc(CNc2cc(-c3ccccc3F)nc3c(Br)cnn23)c1`, in that order: 0.013 µM and over 50 µM. Turning to `Cn1cc(-c2cnn3c(NC(C)(C)C)cc(C4CCCNC4)nc23)cn1` (configuration not stated), the half-inhibitory concentration (IC50) in test [1] was over 50 µM; in test [2], 5 µM. Regarding `N#Cc1cnn2c(N)cc(C3CCCNC3)nc12` (configuration not stated), the IC50 in test [1] amounted to 0.81 µM; in test [2] it was 2.1 µM. `CCOC(=O)c1cnn2c(N)cc(C3CCCNC3)nc12` (configuration not stated): the IC50 in test [2] is over 50 µM. For `CCNc1cc(C2CCCNC2)nc2c(-c3cnn(C)c3)cnn12` (configuration not stated), the figures for the IC50 in test [1] and in test [2] were over 50 µM and 0.48 µM, respectively.

Regarding `CNc1cc(C2CCCNC2)nc2c(-c3cnn(C)c3)cnn12` (configuration not stated), the IC50 in test [1] was over 50 µM; in test [2], 0.14 µM.

In the case of `Nc1cc(C2CCCNC2)nc2c(-c3ccsc3)cnn12` (configuration not stated), the results for the IC50 in test [1] and in test [2] were 0.59 µM and 1.1 µM, respectively. The corresponding values for `Nc1cc(C2CCCNC2)nc2c(-c3ccccc3)cnn12` (configuration not stated) are 4.6 µM and 4.5 µM. Consider `CCn1nccc1Nc1cc(C2CCCNC2)nc2c(-c3cnn(C)c3)cnn12` (configuration not stated), for which the IC50 in test [2] came out at 34 µM.

In the case of `Cn1cc(-c2cnn3c(N)cc(C4CCCNC4)nc23)cn1` (configuration not stated), the IC50 in test [1] stood at 6.1 µM; in test [2] it was 0.06 µM. Further, the Ratio IC50 in test [3] worked out at 100. With `CCc1cnn2c(N)cc(C3CCCNC3)nc12` (configuration not stated), the IC50 in test [1] was 0.27 µM; in test [2] it was 9.4 µM.

For `Cc1cc(Nc2cc(C3CCCNC3)nc3c(-c4cnn(C)c4)cnn23)no1` (configuration not stated), the IC50 in test [1] was over 50 µM; in test [2], 0.021 µM. In the case of `Cn1cc(-c2cnn3c(Nc4ccccn4)cc(C4CCCNC4)nc23)cn1` (configuration not stated), the IC50 is over 50 µM in test [1] and 0.028 µM in test [2]. Consider `Nc1cc(C2CCCNC2)nc2ccnn12` (configuration not stated), for which the IC50 amounted to 7.8 µM in test [1] and 36 µM in test [2]. For the molecule `Nc1cc(C2CCCNC2)nc2c(-c3cncnc3)cnn12` (configuration not stated), the IC50 in test [1] came to 5.4 µM; in test [2], 0.28 µM. The corresponding values for `Nc1cc(-c2ccccc2)nc2c(Br)cnn12` are 0.25 µM and 2.9 µM. Take `Cn1cc(-c2cnn3c(Nc4nccs4)cc(C4CCCNC4)nc23)cn1` (configuration not stated): the IC50 is over 50 µM in test [1] and 0.028 µM in test [2]. The corresponding values for `Cn1cc(-c2cnn3c(NCCO)cc(C4CCCNC4)nc23)cn1` (configuration not stated) are over 50 µM and 0.86 µM. On to `CCOC(=O)c1ccc(Nc2cc(C3CCCNC3)nc3c(-c4cnn(C)c4)cnn23)cc1` (configuration not stated), for which the IC50 in test [1] was over 50 µM; in test [2], 0.051 µM. For the molecule `Cn1cc(-c2cnn3c(NCc4cccnc4)cc(C4CCCNC4)nc23)cn1` (configuration not stated), the values for the half-maximal inhibitory concentration (IC50) in test [1] and in test [2] were over 50 µM and 0.41 µM, respectively. The corresponding values for `Cn1cc(-c2cnn3c(Nc4nncs4)cc(C4CCCNC4)nc23)cn1` (configuration not stated) are over 50 µM and 2.2 µM. For the molecule `Nc1cc(C2CCCNC2)nc2c(-c3ccn[nH]3)cnn12` (configuration not stated), the values for the IC50 in test [1] and in test [2] were 2.2 µM and 2 µM, respectively. The corresponding values for `Cn1cc(-c2cnn3c(NC4CCCCC4)cc(C4CCCNC4)nc23)cn1` (configuration not stated) are over 50 µM and 1.5 µM.

Regarding `Nc1cc(C2CCCNC2)nc2c(Br)cnn12` (configuration not stated), the IC50 in test [1] amounted to 0.086 µM; in test [2], 1.08 µM. For `C/C=C/c1cnn2c(N)cc(C3CCCNC3)nc12` (configuration not stated), in that order: 0.71 µM and 5.1 µM.

Consider `CC#Cc1cnn2c(N)cc(C3CCCNC3)nc12` (configuration not stated), for which the IC50 in test [1] turned out to be 0.08 µM; in test [2], 18 µM. Turning to `Cc1nc2cc(Nc3cc(C4CCCNC4)nc4c(-c5cnn(C)c5)cnn34)ccc2s1` (configuration not stated), the IC50 in test [1] is over 50 µM; in test [2], 0.61 µM. For `Cn1cc(-c2cnn3c(Nc4ccc5c(c4)OCO5)cc(C4CCCNC4)nc23)cn1` (configuration not stated), the results for the IC50 in test [1] and in test [2] were over 50 µM and 0.39 µM, respectively. On to `Nc1cc(C2CCCNC2)nc2c(-c3cnccn3)cnn12` (configuration not stated), for which the IC50 was 1.2 µM in test [1] and 0.29 µM in test [2]. Consider `Nc1cc(C2CCCNC2)nc2c(-c3ccns3)cnn12` (configuration not stated), for which the IC50 in test [1] came out at 0.79 µM; in test [2], 0.07 µM.

For `Nc1cc(C2CCCNC2)nc2c(-c3cscn3)cnn12` (configuration not stated), the IC50 in test [2] was over 50 µM. As to `Nc1cc(C2CCCNC2)nc2c(-c3cccc(O)c3)cnn12` (configuration not stated), the IC50 in test [1] stood at 0.64 µM; in test [2] it was 1.7 µM. Molecule `Cc1cc(Nc2cc(C3CCCNC3)nc3c(-c4cnn(C)c4)cnn23)sn1` (configuration not stated) gave an IC50 in test [1] of 40 µM. For the molecule `Nc1cc(C2CCCNC2)nc2c(-c3ccoc3)cnn12` (configuration not stated), the IC50 in test [2] came out at 0.82 µM. Same read-out and setting: the same measure for `Cn1cc(-c2cnn3c(NCc4ccccc4)cc(C4CCCNC4)nc23)cn1` (configuration not stated): 1 µM.

Regarding `Nc1cc(C2CCCNC2)nc2c(-c3cccs3)cnn12` (configuration not stated), the figures for the IC50 in test [1] and in test [2] were 0.69 µM and 1.3 µM, respectively.

One may read the IC50 as the point on the concentration scale where inhibition reaches its midpoint.
